pEC50: −log10 of the molar value.
test system: HCV (1b) RNA replication (replicon I389Luc-ubi-neo/NS3-3′/5.1); experiment: Cell-based luciferase reporter HCV (1b) RNA replication assay, Huh-ET cells; settings: Hepatitis C virus; Table 2A; HCV genotype 1b replicon
Text: Cell-Based Luciferase Reporter HCV (Ib) RNA Replication Assay Cell Culture
Replicon cell lines Huh-5.2 are derived from the Huh-7 hepatocarcinoma cell line are maintained in culture as generally described in Krieger, N; Lohmann, V; Bartenschlager, R. Enhancement of hepatitis C virus RNA replication by cell culture-adaptive mutations. J. Virol. 2001, 75, 4614-4624. The Huh-5.2 cells contain the highly cell culture-adapted replicon I389Luc-ubi-neo/NS3-3′/5.1 construct that carries, in addition to the neomycin gene, an integrated copy to the firefly luciferase gene (Krieger, N; Lohmann, V; Bartenschlager, R. Enhancement of hepatitis C virus RNA replication by cell culture-adaptive mutations. J. Virol. 2001, 75, 4614-4624). This cell line allows measurement of HCV RNA replication and translation by measuring luciferase activity. It has been previously shown that the luciferase activity tightly follows the replicon RNA level in these cells (Krieger, N; Lohmann, V; Bartenschlager, R. Enhancement of hepatitis C virus RNA replication by cell culture-adaptive mutations. J. Virol. 2001, 75, 4614-4624). The Huh-ET cell line has the same features as those mentioned for Huh-5.2 cell line, except that ET cells are more robust and contain an adaptative mutation in the HCV NS4B gene instead of NSSA. Both cell lines are maintained in cultures at a sub-confluent level (<85%) as the level of replicon RNA is highest in actively proliferating cells. The culture media used for cell passaging consist of DMEM (Gibco BRL Laboratories, Mississauga, ON, Canada) supplemented with 10% foetal bovine serum with 1% penicilin/streptomycin, 1% glutamine, 1% sodium pyruvate, 1% non-essential amino acids, and 180 μg/ml of G418 final concentration. Cells are incubated at 37° C., in an atmosphere of 5% CO2 and passaged twice a week to maintain sub-confluence.
Approximately 3000 viable Huh-ET cells (100 μl) are plated per well in a white opaque 96-well microtiter plate. The cell culture media used for the assay is the same as described above except that it contains no G418 and no phenol red. After an incubation period of 3-4 hours at 37° C. in a 5% CO2 incubator, compounds (100 μl) are added at various concentrations. Cells are then further incubated for 4 days at 37° C. in a 5% CO2 incubator. Thereafter, the culture media is removed and cells are lysed by the addition of 95 μL of the luciferase buffer (luciferin substrate in buffered detergent). Cell lysates are incubated at room temperature and protected from direct light for at least 10 minutes. Plates are read for luciferase counts using a luminometer (Wallac MicroBeta Trilux, Perkin Elmer™, MA, USA).
Curves are fitted to data points using nonlinear regression analysis, and IC50s are interpolated from the resulting curve using GraphPad Prism software, version 2.0 (GraphPad Software Inc., San Diego, Calif., USA).

| SMILES | pEC50 |
| --- | --- |
| COC(=O)N[C@H](C(=O)N1C[C@@H](C)C[C@H]1c1nc2sc(C#CC#Cc3cc4[nH]c([C@@H]5C[C@H](C)CN5C(=O)[C@@H](NC(=O)OC)C(C)C)nc4s3)cc2[nH]1)C(C)C [Compound 4, dimethyl (2S,2′S)-1,1′-((3S,3′S,5S,5′S)-5,5′-(5,5′-(buta-1,3-diyne-1,4-diyl)bis(1H-thieno[2,3-d]imidazole-5,2-diyl))bis(3-methylpyrrolidine-5,1-diyl))bis(3-methyl-1-oxobutane-2,1-diyl)dicarbamate] | ≥ 8.30 |
| COC(=O)N[C@H](C(=O)N1C[C@@H](C)C[C@H]1c1nc2cc(-c3ccc(-c4ccc(-c5cc6nc([C@@H]7C[C@H](C)CN7C(=O)[C@@H](NC(=O)OC)C(C)C)[nH]c6s5)cc4)cc3)sc2[nH]1)C(C)C [Compound 24] | ≥ 8.30 |
| COC(=O)N[C@H](C(=O)N1C[C@@H](C)C[C@H]1c1nc2cc(/C=C/c3ccc(-c4cc5[nH]c([C@@H]6C[C@H](C)CN6C(=O)[C@@H](NC(=O)OC)C(C)C)nc5s4)cc3)ccc2[nH]1)C(C)C [Compound 17] | ≥ 8.30 |
| COC(=O)N[C@H](C(=O)N1C[C@@H](C)C[C@H]1c1ncc(-c2ccc(-c3ccc(-c4cc5[nH]c([C@@H]6C[C@H](C)CN6C(=O)[C@@H](NC(=O)OC)C(C)C)nc5s4)cc3)cc2)[nH]1)C(C)C [Compound 11] | ≥ 8.30 |
| COC(=O)N[C@H](C(=O)N1C[C@@H](C)C[C@H]1c1nc2cc(-c3ccc(-c4cc5[nH]c([C@@H]6C[C@H](C)CN6C(=O)[C@@H](NC(=O)OC)C(C)C)nc5s4)cc3)ccc2[nH]1)C(C)C [Compound 13] | ≥ 8.30 |
| COC(=O)N[C@H](C(=O)N1C[C@@H](C)C[C@H]1c1ncc(-c2ccc(-c3ccc(-c4cc5[nH]c([C@@H]6C[C@H](C)CN6C(=O)[C@@H](NC(=O)OC)C(C)C)nc5s4)s3)cc2)[nH]1)C(C)C [Compound 22] | ≥ 8.30 |
| COC(=O)N[C@H](C(=O)N1C[C@@H](C)C[C@H]1c1ncc(C#Cc2ccc(-c3ccc(-c4cc5[nH]c([C@@H]6C[C@H](C)CN6C(=O)[C@@H](NC(=O)OC)C(C)C)nc5s4)cc3)cc2)[nH]1)C(C)C [Compound 15] | ≥ 8.30 |
| COC(=O)N[C@H](C(=O)N1C[C@@H](C)C[C@H]1c1nc2sc(-c3ccc(-c4ccc(-c5cc6[nH]c([C@@H]7C[C@H](C)CN7C(=O)[C@@H](NC(=O)OC)C(C)C)nc6s5)s4)cc3)cc2[nH]1)C(C)C [Compound 30] | ≥ 8.30 |
| COC(=O)N[C@H](C(=O)N1C[C@@H](C)C[C@H]1c1nc(-c2cccc(-c3ccc(-c4cc5nc([C@@H]6C[C@H](C)CN6C(=O)[C@@H](NC(=O)OC)C(C)C)[nH]c5s4)cc3)c2)c[nH]1)C(C)C [Compound 20] | ≥ 8.30 |
| COC(=O)N[C@H](C(=O)N1C[C@@H](C)C[C@H]1c1ncc(C#Cc2ccc(-c3cc4[nH]c([C@@H]5C[C@H](C)CN5C(=O)[C@@H](NC(=O)OC)C(C)C)nc4s3)s2)[nH]1)C(C)C [Compound 31] | ≥ 8.30 |
| COC(=O)N[C@H](C(=O)N1C[C@@H](C)C[C@H]1c1nc2sc(-c3ccc(-c4ccc5[nH]c([C@@H]6CC[C@H](C)N6C(=O)[C@@H](NC(=O)OC)C(C)C)nc5c4)cc3)cc2[nH]1)C(C)C [Compound 7] | ≥ 8.30 |
| COC(=O)N[C@H](C(=O)N1C[C@@H](C)C[C@H]1c1nc(C)c(-c2ccc(-c3ccc(-c4cc5nc([C@@H]6C[C@H](C)CN6C(=O)[C@@H](NC(=O)OC)C(C)C)[nH]c5s4)cc3)cc2)[nH]1)C(C)C [Compound 28] | ≥ 8.30 |
| COC(=O)N[C@H](C(=O)N1C[C@@H](C)C[C@H]1c1nc(-c2csc3ccc(-c4ccc(-c5cc6nc([C@@H]7C[C@H](C)CN7C(=O)[C@@H](NC(=O)OC)C(C)C)[nH]c6s5)cc4)cc23)c[nH]1)C(C)C [Compound 23] | 5.30 to 8.30 |
| COC(=O)N[C@H](C(=O)N1CCC[C@H]1c1nc2sc(C#CC#Cc3cc4[nH]c([C@@H]5CCCN5C(=O)[C@@H](NC(=O)OC)C(C)C)nc4s3)cc2[nH]1)C(C)C [Compound 2] | ≥ 8.30 |
| COC(=O)N[C@H](C(=O)N1C[C@@H](C)C[C@H]1c1ncc(C#Cc2ccc(-c3ccc(-c4cc5[nH]c([C@@H]6C[C@H](C)CN6C(=O)[C@@H](NC(=O)OC)C(C)C)nc5s4)s3)cc2)[nH]1)C(C)C [Compound 21] | ≥ 8.30 |
| COC(=O)N(C)[C@H](C(=O)N1C[C@@H](C)C[C@H]1c1nc2sc(C#CC#Cc3cc4[nH]c([C@@H]5C[C@H](C)CN5C(=O)[C@H](C(C)C)N(C)C(=O)OC)nc4s3)cc2[nH]1)C(C)C [Compound 5] | ≥ 8.30 |
| COC(=O)N[C@H](C(=O)N1C[C@@H](C)C[C@H]1c1ncc(C#Cc2ccc(-c3cc4[nH]c([C@@H]5C[C@H](C)CN5C(=O)[C@@H](NC(=O)OC)C(C)C)nc4s3)cc2)[nH]1)C(C)C [Compound 12] | ≥ 8.30 |
| COC(=O)N[C@H](C(=O)N1C[C@@H](C)C[C@H]1c1nc2cc(C#Cc3cc4[nH]c([C@@H]5C[C@H](C)CN5C(=O)[C@@H](NC(=O)OC)C(C)C)nc4s3)ccc2[nH]1)C(C)C [Compound 3] | ≥ 8.30 |
| COC(=O)N[C@H](C(=O)N1C[C@@H](C)C[C@H]1c1ncc(-c2ccc(-c3ccc(-c4cc5[nH]c([C@@H]6C[C@H](C)CN6C(=O)[C@@H](NC(=O)OC)C(C)C)nc5s4)cc3)s2)[nH]1)C(C)C [Compound 25] | ≥ 8.30 |

same assay, conditions: Hepatitis C virus; Table 2B; HCV genotype 1b replicon

| SMILES | pEC50 |
| --- | --- |
| COC(=O)N[C@H](C(=O)N1C[C@@H](C)C[C@H]1c1ncc(-c2ccc(-c3ccc(-c4cc5[nH]c([C@@H]6C[C@H](C)CN6C(=O)[C@@H](NC(=O)OC)C(C)C)nc5s4)cc3)c(C)c2)[nH]1)C(C)C [Compound 12a] | ≥ 8.30 |
| COC(=O)N[C@H](C(=O)N1C[C@@H](C)C[C@@H]1c1nc2cc(-c3ccc(-c4ccc(-c5c[nH]c([C@@H]6C[C@H](C)CN6C(=O)[C@@H](NC(=O)OC)C(C)C)n5)cc4)cc3C)sc2[nH]1)C(C)C [Compound 5a] | ≥ 8.30 |
| COC(=O)N[C@H](C(=O)N1C[C@@H](C)C[C@H]1c1nc(I)c(-c2ccc(-c3ccc(-c4cc5nc([C@@H]6C[C@H](C)CN6C(=O)[C@@H](NC(=O)OC)C(C)C)[nH]c5s4)cc3)cc2)[nH]1)C(C)C [Compound 3a] | ≥ 8.30 |
| C[C@H]1C[C@@H](c2ncc(-c3ccc(-c4ccc(-c5cc6[nH]c([C@@H]7C[C@H](C)CN7C(=O)OC(C)(C)C)nc6s5)cc4)c(F)c3)[nH]2)N(C(=O)OC(C)(C)C)C1 [Compound 4a] | ≥ 8.30 |
| COC(=O)N[C@H](C(=O)N1C[C@@H](C)C[C@H]1c1nc(Cl)c(-c2ccc(-c3ccc(-c4cc5nc([C@@H]6C[C@H](C)CN6C(=O)[C@@H](NC(=O)OC)C(C)C)[nH]c5s4)cc3)cc2)[nH]1)C(C)C [Compound 1a] | ≥ 8.30 |
| COC(=O)N[C@H](C(=O)N1C[C@@H](C)C[C@H]1c1nc(-c2ccc(-c3ccc(-c4cc5[nH]c([C@@H]6C[C@H](C)CN6C(=O)[C@@H](NC(=O)OC)C(C)C)nc5s4)cc3F)cc2)c[nH]1)C(C)C [Compound 6a] | ≥ 8.30 |
